8 compounds from patent US20240382475A1, “Quinazoline Derivative, Or Preparation Method Therefor And Use Thereof” (Zhejiang Hisun Pharmaceutical Co., Ltd., priority 2021, published 2024) can be followed below.

Assay [1] concerns the target T1, KRAS-G12C/SOS1 (Homo sapiens, UniProt Q07889).
T1 construct: purchased Cisbio 63ADK000CB16PEG
T1 sequence (Q07889 1-1333): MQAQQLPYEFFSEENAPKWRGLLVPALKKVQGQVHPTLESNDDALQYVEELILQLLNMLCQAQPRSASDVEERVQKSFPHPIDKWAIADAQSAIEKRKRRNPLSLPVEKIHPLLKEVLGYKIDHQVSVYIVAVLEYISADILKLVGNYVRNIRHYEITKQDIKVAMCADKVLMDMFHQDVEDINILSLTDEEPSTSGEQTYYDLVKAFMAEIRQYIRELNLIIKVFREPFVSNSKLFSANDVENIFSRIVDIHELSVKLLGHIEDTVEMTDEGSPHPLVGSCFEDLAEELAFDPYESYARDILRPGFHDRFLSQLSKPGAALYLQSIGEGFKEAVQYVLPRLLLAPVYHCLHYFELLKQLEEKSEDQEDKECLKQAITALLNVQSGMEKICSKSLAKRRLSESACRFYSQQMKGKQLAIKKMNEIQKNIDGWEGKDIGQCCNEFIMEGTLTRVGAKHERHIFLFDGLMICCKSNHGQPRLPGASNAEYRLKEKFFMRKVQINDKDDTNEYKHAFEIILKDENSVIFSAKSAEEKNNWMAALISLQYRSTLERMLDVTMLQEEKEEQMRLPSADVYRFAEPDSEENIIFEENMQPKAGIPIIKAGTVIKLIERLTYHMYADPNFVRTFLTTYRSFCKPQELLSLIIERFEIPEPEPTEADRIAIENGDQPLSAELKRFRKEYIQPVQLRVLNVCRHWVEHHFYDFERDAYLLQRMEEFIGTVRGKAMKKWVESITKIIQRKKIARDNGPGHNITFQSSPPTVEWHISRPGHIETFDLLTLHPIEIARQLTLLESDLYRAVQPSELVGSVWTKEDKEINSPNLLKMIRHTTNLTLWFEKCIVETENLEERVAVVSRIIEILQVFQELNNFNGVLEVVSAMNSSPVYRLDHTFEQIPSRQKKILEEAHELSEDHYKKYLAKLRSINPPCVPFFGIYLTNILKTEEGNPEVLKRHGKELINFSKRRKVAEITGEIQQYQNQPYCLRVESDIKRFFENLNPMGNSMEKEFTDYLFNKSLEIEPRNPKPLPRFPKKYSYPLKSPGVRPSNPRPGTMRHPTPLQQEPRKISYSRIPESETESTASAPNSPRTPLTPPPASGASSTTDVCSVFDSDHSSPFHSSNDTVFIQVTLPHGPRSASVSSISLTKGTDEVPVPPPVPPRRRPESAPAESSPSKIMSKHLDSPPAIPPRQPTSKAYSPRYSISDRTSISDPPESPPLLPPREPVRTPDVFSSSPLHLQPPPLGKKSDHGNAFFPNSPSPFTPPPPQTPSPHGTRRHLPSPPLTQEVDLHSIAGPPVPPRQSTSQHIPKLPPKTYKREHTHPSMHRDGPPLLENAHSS
Description: Blocking the binding of KRAS G12C protein to SOS1 (Cisbio KRAS-G12C/SOS1 binding assay kit, TR-FRET). The settings on record: Tag1-SOS1 and Tag2-KRAS-G12C, TR-FRET 665/620; read-out: IC50 (nM) Inhibition of KRAS-G12C/SOS1 binding. An excerpt: The following method was used to determine the abilities of compounds of the invention to block the interaction of SOS1 with the KRAS G12C protein in vitro. KRAS-G12C/SOS1 BINDING ASSAY KITS (Art. No. 63ADK000CB16PEG) from Cisbio was used in this method. Please refer to the kit instruction for detailed experimental operations.
The experimental process can be briefly described as follows: diluent buffer (Art. No. 62DLBDDF) was used to prepare a working solution with a concentration of 5× for Tag1-SOS1 and Tag2-KRAS-G12C protein. The test compounds were dissolved in DMSO to prepare storage solutions of 10 mM, and then the solutions were diluted with dilution buffer for later use. First, 2 μL of the test compound (the final concentrations of the reaction system were 10000 nM-0.1 nM) was added to the well, then 4 μL of Tag1-SOS1 5× working solution and 4 μL of Tag2-KRAS-G12C 5× working solution were added, and the above mixture was centrifuged, mixed, and stood for 15 minutes; then 10 μL of premixed anti-Tag1-Tb^3+ and anti-Tag2-XL665 were added, and the mixture was incubated at room temperature for 2 hours; finally, a microplate reader was used in […] mode to measure the fluorescence intensity of each well emitting wavelengths of 620 nm and […] under the excitation wavelength of 304 nm, and the fluorescence intensity ratio 665/620 in each well was calculated. Compared with the fluorescence intensity ratio of a control group (0.1% DMSO), the percentage inhibition rates of the test compounds at each concentration were calculated, and the IC50 values of the compounds were obtained by performing nonlinear regression analysis with logarithmic values of the compound concentration-inhibition rate by GraphPad Prism 5 software, which was shown in Table 1.
In general terms: TR-FRET usually uses a lanthanide donor and a delayed reading to cut background.

Assay [2] concerns OCI-AML5 cells. Description: Inhibition of OCI-AML5 cell proliferation (CellTiter-Glo). The format is cell-based. The settings on record: Homo sapiens, OCI-AML-5; OCI-AML5 cells (SOS1 N233Y mutation), 120 hours. The method, boiled down:
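OCI-AML5 cells (SOS1 N233Y), 1,000 per well, treated after overnight culture with compound at final 10000 nM to 0.15 nM for 120 hours at 37° C, 5% CO2. Viability read by CellTiter-Glo luminescence.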
(ATP-based viability assays read luminescence as a measure of living cells.)

With `COc1cc2nc(C)nc(N[C@H](C)c3cccc(C#N)c3C)c2cc1N1CCOCC1` [Compound 1, (R)-3-(1-((7-methoxy-2-methyl-6-morpholinoquinazolin-4-yl)amino)ethyl)-2-methylbenzonitrile], the IC50 in assay [1] was 26.2 nM; in assay [2], 46.4 nM.

Consider `COc1cc2nc(C)nc(N[C@H](C)c3cccc(C#N)c3C)c2cc1N1CCN(C(C)=O)CC1` [Compound 2, (R)-3-(1-((6-(4-acetylpiperazin-1-yl)-7-methoxy-2-methylquinazolin-4-yl)amino)ethyl)-2-methylbenzonitrile], for which the IC50 in assay [1] came to 20.7 nM; in assay [2], 8.4 nM.

As for `COc1cc2nc(C)nc(N[C@H](C)c3cccc(C#N)c3C)c2cc1N1CCC2(CCOCC2)CC1` [Compound 4, (R)-3-(1-((7-methoxy-2-methyl-6-(3-oxa-9-azaspiro[5.5]undecan-9-yl)quinazolin-4-yl)amino)ethyl)-2-methylbenzonitrile], the figures for the IC50 in assay [1] and in assay [2] were 65.2 nM and 6.3 nM, respectively.

Take `COc1cc2nc(C)nc(N[C@H](C)c3cccc(C#N)c3C)c2cc1N1CCC2(CC1)COC2` [Compound 5, (R)-3-(1-((7-methoxy-2-methyl-6-(2-oxa-7-azaspiro[3.5]nonan-7-yl)quinazolin-4-yl)amino)ethyl)-2-methylbenzonitrile]: the IC50 was 28 nM in assay [1] and 11.3 nM in assay [2].

Consider `COc1cc2nc(C)nc(N[C@H](C)c3cccc(C#N)c3C)c2cc1N1CCC2(CCN(C)C2=O)CC1` [Compound 7, (R)-3-(1-((7-methoxy-2-methyl-6-(2-methyl-1-oxo-2,8-diazaspiro[4.5]decan-8-yl)quinazolin-4-yl)amino)ethyl)-2-methylbenzonitrile], for which the IC50 in assay [1] came to 35.7 nM; in assay [2], 2.7 nM.

As to `COc1cc2nc(C)nc(N[C@H](C)c3cccc(C#N)c3C)c2cc1N1CCC(C#N)CC1` [Compound 8, (R)-1-(4-((1-(3-cyano-2-methylphenyl)ethyl)amino)-7-methoxy-2-methylquinazolin-6-yl)piperidine-4-carbonitrile], the IC50 came out at 62 nM in assay [1] and 12 nM in assay [2].

`COc1cc2nc(C)nc(N[C@H](C)c3cccc(C#N)c3C)c2cc1N1CCC(C)(O)CC1` [Compound 11, (R)-3-(1-((6-(4-hydroxy-4-methylpiperidin-1-yl)-7-methoxy-2-methylquinazolin-4-yl)amino)ethyl)-2-methylbenzonitrile]: the IC50 in assay [1] was 39.5 nM; in assay [2], 13.6 nM.

Consider `COc1cc2nc(C)nc(N[C@H](C)c3cccc(C#N)c3C)c2cc1N1CCC2(CC1)CN(C(C)=O)C2` [Compound 19, (R)-3-(1-((6-(2-acetyl-2,7-diazaspiro[3.5]nonan-7-yl)-7-methoxy-2-methylquinazolin-4-yl)amino)ethyl)-2-methylbenzonitrile], for which the IC50 in assay [1] amounted to 22.3 nM; in assay [2], 16.4 nM.
